One data set concerns Hartley guinea pigs. The data set can be described thus: learned helplessness test in guinea pigs. It is filed as in vivo. Conditions: guinea pig. The text has this: The utility of the compounds for example to treat depression may be shown via a learned helplessness test in guinea pigs, which is used extensively as correlative to antidepressant activity in humans. The learned helplessness test may be carried out as follows: Seventy male Hartley guinea pigs, each weighing about 350-425 gm are fed ad lib, and are housed under a 12-hour light/dark cycle. The procedure consists of two phases: The induction phase and the avoidance-training phase. In the induction phase, subjects are placed into standard shuttle cages (20 L×16 W×21 centimeters H) which are fitted with a grid floor. Electrical stimulation (1.25 mA, 10 sec duration) is delivered to the floor of the cage every 90-sec during 1 hour daily sessions. Subjects have no opportunity to escape or to avoid shocks. Induction is conducted for 2 consecutive days.
In avoidance training, testing is also conducted in the shuttle cages, except that the subjects are not returned to the same chamber in which induction had occurred. Additionally, all cages are fitted with a partition with an arch in the center of the cage, through which animals can pass between the left and right halves of the cage. The procedure employed is a standard shuttle avoidance procedure in which a compound, conditioned stimulus (a 10-sec presentation of a tone and turning on of a lamp on the side of the cage that the guinea pig was occupying) serves to indicate presentation of electrical current to the floor of the cage. Shock is presented for a 5 sec period, 5 sec after initiation of the conditioned stimulus. Entry into the opposite side of the shuttle cage via the arched partition prior to shock onset results in the end of the trial (avoidance response). If shock is delivered, entry into the opposite side of the cage results in termination of the shock and CS (escape). Reversal of learned helplessness in the induction subjects correlates to antidepressant activity of the test compound.
Avoidance training, 45-min in duration, is conducted on 2 consecutive days, beginning 48 hr after the final induction session. Seventy subjects are assigned to 1 of 6 groups of 11-12 animals. The groups are as follows: • 1) No induction group. The subjects are placed into the shuttle cages but are not given inescapable shock, the animals are subsequently trained in the avoidance procedure and the vehicle is administered; • 2) Induction vehicle control group; • 3) Imipramine 17.8 mg/kg; • 4) 0.3 mg/kg compounds; • 5) 1 mg/kg compounds; and • 6) 5 mg/kg compounds.
Groups 2-6 are given induction and avoidance training sessions. Injections are administered immediately following induction sessions and 1 hour prior to avoidance training sessions. […]

In data set [1] the target is 5-HT1B and 5HT1D receptors. The note with it: guinea pig cortex membranes; "may result in a measurement of"; assay of Roberts et al.; read-out: Kd of the radioligand (saturation studies); cited from earlier work.

SMILES strings stand for the structures.

With `CN1CCN(c2cccc3c2OC(C(=O)Nc2ccc(N4CCOCC4)cc2)CC3=O)CC1` (single isomer, unassigned) [Example 79, 8-(4-Methyl-piperazin-1-yl)-4-oxo-chroman-2-carboxylic acid (4-morpholin-4-yl-phenyl)-amide (Faster Running Isomer)], the melting point was 216 °C (dec.).
Compound `CN1CCN(c2cccc3c2OC(C(=O)Nc2ccc(N4CCOCC4)cc2)CC3)CC1` (single isomer, unassigned; (-)) [Example 77, (−)-8-(4-Methyl-piperazin-1-yl)-chroman-2-carboxylic acid (4-morpholin-4-yl-phenyl)-amide] yielded a melting point of 205.5 to 207 °C.
Same read-out and setting: as for `CN1CCN(c2cccc3c(=O)cc(C(=O)Nc4ccc(N5CCOCC5)cc4)oc23)CC1` [Example 1, 8-(4-methyl-1-piperazinyl)-N-[4-(4-morpholinyl)phenyl]-4-oxo-4H-chromene-2-carboxamide], the figure is 217 to 218 °C (dec.).
As for `CCC(=O)N1CCN(c2ccc(NC(=O)c3cc(=O)c4cc(F)cc(N5CCN(C)CC5)c4o3)cc2)CC1` [Example 72, 6-Fluoro-8-(4-methyl-piperazin-1-yl)-4-oxo-4H-chromene-2-carboxylic acid [4-(4-propionyl-piperazin-1-yl)-phenyl]-amide], in the data set with Hartley guinea pigs, the “activity in the learned helplessness assay for antidepressant/antianxiety activity” value was “demonstrate activity”.
For the compound `COc1ccc(NC(=O)c2ccc(-c3ccncc3)c(C)c2)cc1N1CCN(C)CC1` [[^3H]-GR125743], the Kd in data set [1] was 0.046 ± 0.004 nM.
Take `COc1cc(N2CCN(C)CC2)c2oc(C(=O)Nc3ccc(N4CCN(C(=O)CCO)CC4)cc3)cc(=O)c2c1` [Example 68, 6-Methoxy-8-(4-methyl-piperazin-1-yl)-4-oxo-4H-chromene-2-carboxylic acid {4-[4-(3-hydroxy-propanoyl)-piperazin-1-yl]-phenyl}-amide]: the melting point lay within 195 to 197 °C.
`CN1CCN(c2cccc3c2OC(C(=O)Nc2ccc(N4CCOCC4)cc2)CC3=O)CC1` (racemic) [Example 78, racemic-8-(4-methyl-piperazin-1-yl)-4-oxo-chroman-2-carboxylic Acid (4-morpholin-4-yl-phenyl)-amide]: the melting point lay in the range of 215 to 216 °C.
For `CCNC(=O)N1CCN(c2ccc(NC(=O)c3cc(=O)c4cc(F)cc(N5CCN(C)CC5)c4o3)cc2)CC1` [Example 81, 4-[4-({1-[6-Fluoro-8-(4-methyl-piperazin-1-yl)-4-oxo-4H-chromen-2-yl]-methanoyl}-amino)-phenyl]-piperazine-1-carboxylic Acid Ethylamide], the melting point lay within 236 to 238 °C.
In the case of `CN1CCN(c2cc(F)cc3c(=O)cc(C(=O)Nc4ccc(N5CCN(C(=O)CCO)CC5)cc4)oc23)CC1` [Example 73, 6-Fluoro-8-(4-methyl-piperazin-1-yl)-4-oxo-4H-chromene-2-carboxylic acid {4-[4-(3-hydroxy-propanoyl)-piperazin-1-yl]-phenyl}-amide], the melting point fell in the range of 195 to 199 °C.
As to `CN1CCN(c2cccc3c2OC(C(=O)Nc2ccc(N4CCOCC4)cc2)CC3)CC1` (single isomer, unassigned; (+)) [Example 76, (+)-8-(4-Methyl-piperazin-1-yl)-chroman-2-carboxylic Acid (4-morpholin-4-yl-phenyl)-amide], the melting point fell in the range of 206 to 207 °C.
As to `CN1CCN(c2cccc3c2OC(C(=O)Nc2ccc(N4CCOCC4)cc2)CC3)CC1` (racemic) [Example 75, racemic-8-(4-Methyl-piperazin-1-yl)-chroman-2-carboxylic Acid (4-morpholin-4-yl-phenyl)-amide], the melting point is 215 to 216 °C.
Regarding `CCC(=O)N1CCN(c2ccc(NC(=O)c3cc(=O)c4cc(OC)cc(N5CCN(C)CC5)c4o3)cc2)CC1` [Example 44, 6-Methoxy-8-(4-methyl-piperazin-1-yl)-4-oxo-4H-chromene-2-carboxylic Acid [4-(4-propionyl-piperazin-1-yl)-phenyl]-amide], the “activity in the learned helplessness assay for antidepressant/antianxiety activity” value in the data set on Hartley guinea pigs is “demonstrate activity”.
In turn, `CN1CCN(c2cccc3c(=O)cc(-c4nc5ccc(N6CCOCC6)cc5o4)oc23)CC1` [Example 21, 8-(4-Methyl-piperazin-1-yl)-2-(6-morpholin-4-yl-benzooxazol-2-yl)-chromen-4-one] yielded a melting point of 158.1 to 158.8 °C.
Compound `COc1cc(N2CCN(C)CC2)c2oc(C(=O)Nc3ccc(N4CCOCC4)cc3)cc(=O)c2c1` [Example 31, 6-Methoxy-8-(4-methyl-piperazin-1-yl)-4-oxo-4H-chromene-2-carboxylic acid (4-morpholin-4-yl-phenyl)-amide] had a melting point of 234 to 236 °C. The “activity in the learned helplessness assay for antidepressant/antianxiety activity” value in the data set on Hartley guinea pigs is “demonstrate activity”.
For `CN1CCN(c2cccc3c2OC(C(=O)Nc2ccc(N4CCOCC4)cc2)CC3=O)CC1` (single isomer, unassigned) [Example 80, 8-(4-Methyl-piperazin-1-yl)-4-oxo-chroman-2-carboxylic Acid (4-morpholin-4-yl-phenyl)-amide (Slower Running Isomer)], the melting point is 215 °C (dec.).
The compound `CCS(=O)(=O)N1CCN(c2ccc(NC(=O)c3cc(=O)c4cc(F)cc(N5CCN(C)CC5)c4o3)cc2)CC1` [Example 71, 6-Fluoro-8-(4-methyl-piperazin-1-yl)-4-oxo-4H-chromene-2-carboxylic Acid [4-(4-ethane sulfonyl-piperazin-1-yl)-phenyl]-amide] had a melting point of 233 to 234 °C. The “activity in the learned helplessness assay for antidepressant/antianxiety activity” value in the data set with Hartley guinea pigs is “demonstrate activity”.
In turn, `CN1CCN(c2cccc3c(=O)cc(C(=O)Nc4ccc(N5CCOCC5)cc4O)oc23)CC1` [Example 22, 8-(4-Methyl-piperazin-1-yl)-4-oxo-4H-chromene-2-carboxylic Acid (2-hydroxy-4-morpholin-4-yl-phenyl)-amide] gave a melting point of 248.4 to 249.6 °C.
`CN1CCN(c2cccc3c(=O)cc(C(=O)N(C)c4ccc(N5CCOCC5)cc4)oc23)CC1` [Example 25, 8-(4-Methylpiperazin-1-yl)-4-oxo-4H-chromene-2-carboxylic Acid methyl-(4-morpholin-4-yl-phenyl)amide]: the melting point fell in the range of 245 to 246.8 °C.

(Values after patent US20050085457A1, “Therapeutic quinolone compounds with 5-ht-antagonistic properties” (priority 2001, published 2005).)
